Measurements: the supplement of paper PMC10307832

Experiments:
Assay in all cases: relative viability (nuclei count vs DMSO), 5 days (fraction); higher = more cells survive
CUDC-101 + OSI-027 = compound: C#Cc1cccc(Nc2ncnc3cc(OC)c(OCCCCCCC(=O)NO)cc23)c1 [CUDC-101] + COc1cccc2cc(-c3nc([C@H]4CC[C@H](C(=O)O)CC4)n4ncnc(N)c34)[nH]c12 [OSI-027] (partner 0.5 µM)
In short: (§1)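 Dosing by pin tool came one day after lung cancer cell lines were seeded in 1536-well plates, using either one drug or a fixed anchor-drug dose plus five library-drug doses (not always all listed) in √10 steps. After 5 days, nuclei were counted on 4× images. Relative viability is treated-well nuclei count divided by vehicle-well nuclei count, and values are medians of duplicate plates.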

CUDC-101 + Luminespib = compound: C#Cc1cccc(Nc2ncnc3cc(OC)c(OCCCCCCC(=O)NO)cc23)c1 [CUDC-101] + CCNC(=O)c1noc(-c2cc(C(C)C)c(O)cc2O)c1-c1ccc(CN2CCOCC2)cc1 [Luminespib] (partner 0.01 µM)
In short: as §1

[1] = compound: C1=CC=C2C(=C1)N=C(S2)C(C#N)C3=NC(=NC=C3)NCCC4=CN=CC=C4 + O=C(c1cc(Cc2n[nH]c(=O)c3ccccc23)ccc1F)N1CCN(C(=O)C2CC2)CC1 [Olaparib] (partner 8 µM)
In short: as §1

[2] = compound: C1=CC=C2C(=C1)N=C(S2)C(C#N)C3=NC(=NC=C3)NCCC4=CN=CC=C4 + Nc1nc2[nH]cc(CCc3ccc(C(=O)N[C@@H](CCC(=O)O)C(=O)O)cc3)c2c(=O)[nH]1 [Pemetrexed] (partner 0.2 µM)
In short: as §1

Cell Line	relative viability (CUDC-101 + OSI-027; first compound 0.01 µM)	relative viability (CUDC-101 + OSI-027; first compound 0.03162 µM)	relative viability (CUDC-101 + OSI-027; first compound 0.1 µM)	relative viability (CUDC-101 + OSI-027; first compound 0.3162 µM)	relative viability (CUDC-101 + OSI-027; first compound 1 µM)	relative viability (CUDC-101 + Luminespib; first compound 0.01 µM)	relative viability (CUDC-101 + Luminespib; first compound 0.03162 µM)	relative viability (CUDC-101 + Luminespib; first compound 0.1 µM)	relative viability (CUDC-101 + Luminespib; first compound 0.3162 µM)	relative viability (CUDC-101 + Luminespib; first compound 1 µM)	relative viability ([1]; first compound 0.005 µM)	relative viability ([1]; first compound 0.01581 µM)	relative viability ([1]; first compound 0.05 µM)	relative viability ([1]; first compound 0.1581 µM)	relative viability ([1]; first compound 0.5 µM)	relative viability ([2]; first compound 0.005 µM)	relative viability ([2]; first compound 0.01581 µM)	relative viability ([2]; first compound 0.05 µM)	relative viability ([2]; first compound 0.1581 µM)	relative viability ([2]; first compound 0.5 µM)
EKVX	0.649	0.696	0.694	0.798	0.579	0.916	0.677	0.749	0.982	0.81	1	0.865	0.797	0.689	0.673	0.398	0.382	0.39	0.459	0.417
NCI-H1650	0.661	0.531	0.517	0.577	0.231	0.25	0.221	0.189	0.166	0.193	0.718	0.719	0.708	0.882	0.507	0.382	0.385	0.395	0.353	0.27
NCI-H1703											0.357	0.353		0.377	0.66					
NCI-H727	0.633	0.601	0.7	0.578	0.369	0.399	0.392	0.558	0.342	0.396	0.734	0.622	0.806	0.746	0.679					
NCI-H838	0.411	0.354	0.431	0.523	0.391	0.302	0.248	0.228	0.251	0.218	0.622	0.829	0.731	0.773	0.546	0.216	0.242	0.243	0.262	0.249
NCI-H1944	0.436	0.388	0.357	0.36	0.253	0.757	0.545	0.732	0.565	0.53	0.358	0.432	0.361	0.41	0.619	0.605	0.665	0.66	0.558	0.576
SK-LU-1	0.356	0.332	0.431	0.402	0.325	0.188	0.203	0.213	0.206	0.216	0.404	0.454	0.481	0.513	0.483	0.81	1.06	0.956	1.12	0.89
LC-2-ad	0.823	1.04	0.985	0.827	0.339	1.04	0.953	1.15	0.974	0.707	0.699	0.701	0.762	0.729	0.673	0.259	0.328	0.293	0.271	0.278
LOU-NH91	0.753	0.633	0.523	0.514	0.443	0.395	0.216	0.334	0.385	0.316	0.914	0.914	0.826	0.888	0.801	0.403	0.429	0.418	0.375	0.441
NCI-H2009	0.672	0.737	0.739	0.8	0.494	1.07	0.904	1.06	1.02	0.928	0.667	0.669	0.664	0.438	0.684	0.992	1.05	0.98	1.09	1.02
NCI-H647	0.68	0.668	0.783	0.596	0.383	0.188	0.266	0.147	0.195	0.238	0.423	0.536	0.583	0.572	0.3	0.165	0.175	0.182	0.179	0.19
NCI-H1666	0.85	0.867	0.837	0.857	0.739	1.09	1.02	1.1	1	1.07	0.754	0.761	0.764	0.767	0.681	0.835	0.823	0.832	0.852	0.827
EBC-1											0.784	0.757	0.656	0.629	0.574					
HCC-366	0.914	0.768	1.01	1.15	0.815						0.189	0.449	0.349	0.372	0.354	0.177	0.146	0.145	0.165	0.164
HCC-78	0.291	0.352	0.362	0.335	0.218						0.852	0.935	0.816	0.936	0.756	0.793	0.886	0.92	0.92	0.784
IA-LM												0.883	0.804	0.836	0.763					
NCI-H1299											0.966	1.05	1.01	1.05	0.894					
ABC-1	0.601	0.461	0.454	0.373	0.142	0.519	0.368	0.721	0.586	0.258	0.731		0.803	0.825	0.936					
NCI-H1623	0.452	0.441	0.33	0.329	0.239	0.469	0.46	0.445	0.632	0.392										
NCI-H1563	0.732	0.751	0.783	0.728	0.675	0.447	0.526	0.506	0.531	0.495						0.751	0.728	0.696	0.779	0.764
NCI-H1648	0.265		0.243	0.266	0.254							1.02		0.977	1.09		0.682		0.673	0.652
A549											0.488	0.236	0.321	0.409	0.232					
Calu-6											0.602	0.619	0.52	0.644	0.505					
